Patent US7652047B2, “Phenylamino isothiazole carboxamidines as MEK inhibitors” (Ardea Biosciences, Inc., priority 2005, dated 2010)

The molecules below were run against T1, MEK1^CA (human GST-MEK1, constitutively active, Ser218Asp and Ser222Asp) (Homo sapiens, UniProt Q02750, S218D/S222D) (assay: MEK1 enzymatic activity assay (MEK1^CA / ERK2 / MBP, [γ-33P]ATP incorporation)). Details: Table 1, compounds of formula I; read-out: Avg IC50.
T1 construct: GST; made in house; host or cells: Escherichia coli
T1 sequence (Q02750 whole entry S218D/S222D): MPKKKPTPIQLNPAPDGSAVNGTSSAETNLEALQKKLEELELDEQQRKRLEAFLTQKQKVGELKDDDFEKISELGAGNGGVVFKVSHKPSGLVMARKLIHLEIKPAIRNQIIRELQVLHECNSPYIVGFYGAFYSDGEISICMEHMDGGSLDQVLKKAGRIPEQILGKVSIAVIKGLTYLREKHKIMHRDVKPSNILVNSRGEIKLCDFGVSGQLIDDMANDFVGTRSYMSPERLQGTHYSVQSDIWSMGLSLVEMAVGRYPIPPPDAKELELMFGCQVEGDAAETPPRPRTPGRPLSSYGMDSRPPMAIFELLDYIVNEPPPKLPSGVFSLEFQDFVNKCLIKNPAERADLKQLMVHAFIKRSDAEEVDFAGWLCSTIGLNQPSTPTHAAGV
Format: biochemical
Procedure, shortened: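 Cascade assay: 25 µl reactions with 0.002 nmol E. coli-expressed GST-MEK1 S218D/S222D, 0.02 nmol His-tagged mouse ERK2, 0.25 nmol MBP, 0.25 nmol unlabeled ATP and 0.1 µCi [γ-33P]ATP. Compound preincubated 30 min at ambient temperature with MEK1/ERK2; stopped with TCA, 33P-labelled protein filter-captured and scintillation-counted.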

Structure (SMILES)	IC50 [nM]
N=C(NCC(O)O)c1c(O)nsc1Nc1ccc([N+](=O)[O-])cc1 [compound 78]	> 500
CC(C)NC(=N)c1c(O)nsc1Nc1ccc(Oc2cc(Cl)ccc2Cl)cc1 [compound 313]	> 500
N=C(NCc1ccccn1)c1c(O)nsc1Nc1ccc(Oc2ccccc2)cc1 [compound 38]	100 to 500
Cc1cc(Oc2cc(F)cc(F)c2)ccc1Nc1snc(O)c1C(=N)NCC(O)CO (stereo not drawn) [compound 466]	1 to 100
CCOC(=O)c1cccc(Nc2snc(O)c2C(=N)NC(C)CO)c1 (stereo not drawn) [compound 489]	> 500
N=C(NCC1CCCCC1)c1c(O)nsc1Nc1ccc(C(=O)c2ccccc2)cc1 [compound 104]	100 to 500
CC(CO)NC(=N)c1c(O)nsc1Nc1ccc(/N=N/c2ccccc2)cc1 (stereo not drawn) [compound 219]	1 to 100
COC(=O)c1cccc(Nc2snc(O)c2C(=N)NCC(C)O)c1C (stereo not drawn) [compound 495]	> 500
CC(C)NC(=N)c1c(O)nsc1Nc1ccc(Oc2cc(F)ccc2F)cc1 [compound 349]	1 to 100
CC(C)NC(=N)c1c(O)nsc1Nc1ccc(Oc2ccccc2F)c(F)c1 [compound 310]	1 to 100
CC(C)NC(=N)c1c(O)nsc1Nc1ccc(Oc2cccc3ccccc23)cc1 [compound 340]	1 to 100
COCC(C)NC(=N)c1c(O)nsc1Nc1ccc(Oc2cccc(F)c2F)cc1C (stereo not drawn) [compound 502]	1 to 100
CC(CO)NC(=N)c1c(O)nsc1Nc1ccc(Oc2ccc(Br)cc2)c(F)c1 (stereo not drawn) [compound 333]	1 to 100
CC(CO)NC(=N)c1c(O)nsc1Nc1ccc(Oc2cccc3ccccc23)cc1 (stereo not drawn) [compound 338]	1 to 100
CCC(CO)NC(=N)c1c(O)nsc1Nc1ccc(Oc2cc(F)cc(F)c2)cc1C (stereo not drawn) [compound 468]	1 to 100
CC(C)(C)C(CO)NC(=N)c1c(O)nsc1Nc1ccc(Oc2ccccc2)cc1 (stereo not drawn) [compound 180]	100 to 500
N=C(NCCN1CCOCC1)c1c(O)nsc1Nc1ccc(Oc2ccc(Cl)cc2Cl)cc1 [compound 426]	1 to 100
CC(CO)NC(=N)c1c(O)nsc1Nc1ccc(Oc2ccccc2Cl)cc1 (stereo not drawn) [compound 211]	> 500
CC(C)NC(=N)c1c(O)nsc1Nc1ccc(Oc2ccc(F)cc2)c(F)c1 [compound 395]	100 to 500
N=C(NCCc1ccc(O)cc1)c1c(O)nsc1NCCc1ccc(O)cc1 [compound 114]	> 500
N=C(NCC1CCCCC1)c1c(O)nsc1Nc1ccc([N+](=O)[O-])cc1O [compound 89]	> 500
N=C(NN1CCCCC1)c1c(O)nsc1Nc1ccc(Oc2cc(Cl)ccc2Cl)cc1 [compound 449]	1 to 100
COc1cccc(F)c1Oc1ccc(Nc2snc(O)c2C(=N)NC(C)C)cc1 [compound 270]	> 500
CC(CO)N=C(N)c1c(O)nsc1Nc1ccc(Oc2cc(C(F)(F)F)ccc2I)cc1 (stereo not drawn) [compound 385]	1 to 100
N=C(NN1CCOCC1)c1c(O)nsc1Nc1ccc(Oc2ccccc2)cc1 [Cpd 6]	1 to 100
N=C(N[C@@H]1CC2CCC1C2)c1c(O)nsc1Nc1ccc(Oc2ccccc2)cc1 (stereo partly drawn) [Cpd 22]	1 to 100
CC(C)(C)NC(=N)c1c(O)nsc1Nc1ccc(Oc2ccccc2)cc1 [compound 173]	1 to 100

Structure (SMILES)	IC50 [nM]
N=C(NCC1CCCCC1)c1c(O)nsc1NC1CCc2ccccc21 (stereo not drawn) [compound 116]	> 500
N=C(NCc1cccc2ccccc12)c1c(O)nsc1Nc1cc(C(F)(F)F)cc(C(F)(F)F)c1 [compound 68]	> 500
Cc1cc(C#N)cc(C)c1Oc1ccc(Nc2snc(O)c2C(=N)NC(C)C)cc1 [compound 262]	> 500
CC(C)NC(=N)c1c(O)nsc1Nc1ccc(Oc2ccc(F)cc2F)c(F)c1 [compound 398]	100 to 500
N=C(NCC1CCCCC1)c1c(O)nsc1Nc1ccc2c(c1)Cc1ccccc1-2 [compound 111]	> 500
CC(C)NC(=N)c1c(O)nsc1Nc1ccc(Oc2ccccc2Br)cc1 [compound 293]	1 to 100
CC(CO)NC(=N)c1c(O)nsc1Nc1ccc(Oc2ccccc2Cl)c(F)c1 (stereo not drawn) [compound 278]	1 to 100
Cc1cccc(Cl)c1Oc1ccc(Nc2snc(O)c2C(=N)NC(C)CO)cc1 (stereo not drawn) [compound 343]	> 500
Cc1ccc(Nc2snc(O)c2C(=N)N2CCc3ccccc3C2)cc1 [Cpd 8]	> 500
CC(C)NC(=N)c1c(O)nsc1Nc1ccc(Oc2ccc(Cl)cc2Cl)cc1 [compound 232]	1 to 100
N=C(c1c(O)nsc1Nc1ccc(Oc2cc(F)cc(F)c2)cc1)N1CCOCC1 [compound 420]	> 500
CC(C)NC(=N)c1c(O)nsc1Nc1ccc(-n2cccn2)cc1 [compound 314]	> 500
Cc1ccc(Nc2snc(O)c2C(=N)NN2CCOCC2)cc1 [Cpd 5]	100 to 500
Cc1ccc(Cl)cc1Oc1ccc(Nc2snc(O)c2C(=N)NC(C)C)cc1 [compound 311]	100 to 500
CC(CO)NC(=N)c1c(O)nsc1Nc1ccc(Oc2ccc(F)cc2)c(Br)c1 (stereo not drawn) [compound 209]	100 to 500
CC(C)NC(=N)c1c(O)nsc1Nc1ccc(Oc2ccccc2)cc1 [Cpd 28]	1 to 100
Cc1ccc(Cl)c(Oc2ccc(Nc3snc(O)c3C(=N)NC(C)C)cc2)c1 [compound 292]	1 to 100
COCCCNc1snc(O)c1C(=N)NCCOc1ccccc1 [compound 112]	> 500
N=C(N)c1c(O)nsc1Nc1ccc(Oc2ccccc2)cc1 [compound 110]	100 to 500
CC(C)C[C@H](CO)NC(=N)c1c(O)nsc1Nc1ccc(Oc2ccccc2)cc1 [compound 163]	100 to 500
Cc1cccc(Oc2ccc(Nc3snc(O)c3C(=N)NC(C)CO)cc2)c1 (stereo not drawn) [compound 289]	1 to 100
COc1ccc(-c2ccccc2)cc1Nc1snc(O)c1C(=N)NCC1CCCCC1 [compound 62]	> 500
N=C(c1c(O)nsc1Nc1ccc(Oc2ccccc2)cc1)N(O)Cc1ccccc1 [compound 138]	100 to 500
CN(C)CCNC(=N)c1c(O)nsc1Nc1ccc(Oc2ccc(Cl)cc2Cl)cc1 [compound 425]	100 to 500
CNC(=N)c1c(O)nsc1Nc1ccc(Oc2ccccc2)c(F)c1 [compound 309]	> 500
CC(C)NC(=N)c1c(O)nsc1Nc1ccc(Oc2cccc(C(F)(F)F)c2F)cc1 [compound 353]	1 to 100
N=C(NCCO)c1c(O)nsc1Nc1ccc(Oc2ccc(F)cc2)cc1 [compound 204]	> 500

Structure (SMILES)	IC50 [nM]
N=C(NCc1ccccc1)c1c(O)nsc1Nc1ccc(Oc2cc(Cl)ccc2Cl)cc1 [compound 454]	1 to 100
COc1ccc(Nc2snc(O)c2-c2nnn[nH]2)c(OC)n1 [compound 181]	> 500
CC(CO)/N=C(\N)c1c(O)nsc1Nc1ccc(Oc2ccccc2)cc1 (stereo not drawn) [compound 154]	1 to 100
Cc1ccc(Nc2snc(O)c2/C(N)=N/O)cc1 [Cpd 3]	> 500
N=C(NCc1cccc2ccccc12)c1c(O)nsc1Nc1cccc(Cl)c1Cl [compound 105]	> 500
CC(C)(CO)NC(=N)c1c(O)nsc1Nc1ccc(Oc2ccccc2)cc1 [compound 188]	100 to 500
CC(C)NC(=N)c1c(O)nsc1Nc1ccc(Oc2cc(F)ccc2Cl)cc1 [compound 308]	100 to 500
N=C(NCC1CCCCC1)c1c(O)nsc1NCC1CC1 [compound 119]	> 500
N=C(NCC(O)O)c1c(O)nsc1Nc1ccc(Oc2ccc(F)cc2)c(Br)c1 [compound 208]	> 500
CC(CO)NC(=N)c1c(O)nsc1Nc1ccc(Oc2ccc(C(F)(F)F)cc2)c(Cl)c1 (stereo not drawn) [compound 396]	100 to 500
CC(CO)NC(=N)c1c(O)nsc1Nc1ccc(Oc2ccc(F)cc2Cl)cc1C(F)(F)F (stereo not drawn) [compound 408]	1 to 100
N=C(NC1CCCCC1)c1c(O)nsc1Nc1ccc(Oc2ccccc2)cc1 [Cpd 11]	1 to 100
CC[C@H](CO)NC(=N)c1c(O)nsc1Nc1ccc(Oc2ccccc2)cc1 [compound 177]	100 to 500
N=C(NCC1CCCCC1)c1c(O)nsc1Nc1ccc(Oc2cc(Cl)ccc2Cl)cc1 [compound 441]	1 to 100
CC(C)NC(=N)c1c(O)nsc1Nc1ccc(Cl)cc1Cl [compound 225]	1 to 100
CC(C)NC(=N)c1c(O)nsc1Nc1ccc(Oc2cncnc2)cc1 [compound 169]	100 to 500
CCCCc1ccc(Nc2snc(O)c2C(=N)NCC2CCCCC2)cc1 [compound 94]	100 to 500
N=C(NCC(O)CO)c1c(O)nsc1Nc1ccc(Cl)cc1 (stereo not drawn) [compound 101]	100 to 500
Cc1ccc(F)c(Oc2ccc(Nc3snc(O)c3C(=N)NC(C)C)cc2)c1 [compound 347]	1 to 100
CC(C)NC(=N)c1c(O)nsc1Nc1ccc(Oc2ccc(C(F)(F)F)cc2)c(Cl)c1 [compound 388]	100 to 500
Cc1cc(Oc2ccc(Cl)cc2F)ccc1Nc1snc(O)c1C(=N)NC(C)C [compound 402]	1 to 100
CC(CO)NC(=N)c1c(O)nsc1Nc1ccc(Oc2ccc(F)cc2Cl)c(F)c1 (stereo not drawn) [compound 370]	1 to 100
CC(C)NC(=N)c1c(O)nsc1Nc1ccc(Oc2ccc(F)cc2Cl)c(Cl)c1 [compound 297]	100 to 500
Cc1cc(Oc2cccc(C(F)(F)F)c2)ccc1Nc1snc(O)c1C(=N)NC(C)CO (stereo not drawn) [compound 438]	1 to 100
Cc1ccc(Nc2snc(O)c2C(=N)NC2CCCC2)cc1 [Cpd 2]	100 to 500
Cc1cccc(C)c1Oc1ccc(Nc2snc(O)c2C(=N)NC(C)CO)cc1F (stereo not drawn) [compound 276]	> 500

Same assay, conditions: Table 2, Ar1-A contains an amido or indolo group; read-out: IC 50

Structure (SMILES)	IC50 [nM]
CN1CCN(C(=O)c2ccc(Nc3snc(O)c3C(=N)NCCO)cc2)CC1 [E-18]	> 1000

Same assay, conditions: Table 3, benzamides of formula X; read-out: IC 50

Structure (SMILES)	IC50 [nM]
N=C(NCCO)c1c(O)nsc1Nc1ccc(C(=O)Nc2ccccc2)cc1 [drawing 809]	100 to 500

Same assay, conditions: Table 4, R' is (CH2)1 or 2-G; read-out: IC50

Structure (SMILES)	IC50 [nM]
N=C(NCC1CCCCC1)c1c(O)nsc1Nc1ccc(Sc2ccccc2)cc1 [drawing 826]	1 to 100
Cc1ccc(Oc2ccc(Nc3snc(O)c3C(=N)NCC3CCCCC3)cc2)cn1 [drawing 824]	100 to 500
